Laboratory results published in paper PMC9686516, “Pharmacokinetic Characteristics of Nebulized Colistimethate Sodium Using Two Different Types of Nebulizers in Critically Ill Patients with Ventilator-Associated Respiratory Infections” (Antibiotics, 2022).
Where two headings read alike, the source gives them in different places. Where a SMILES comes first, the peptide text is derived from it. Bridges are numbered along the chain shown (N, C = ends). [ ]: non-standard residue; d: D form. The star is where a group is joined. X1 = CC[C@H](C)CCCCC(=O)*; Dab = NCC[C@H](N)C(=O)O

Experiments:
[1] = cited from earlier work
Description: However, the ELF exposure was similar, despite the higher dose, probably due to a higher clearance from the lung compartment in our study, as evidenced by the ... || Contrarily, our results were only marginally compatible with the results of Boisson et al. and Gkoufa et al.. In the former study, the range of colistin concentration in the ELF following a 2 mIU inhalation spanned from 9.53 to 1137 mg/L [14], while it was between 0.8 mg/L and 57.9 mg/L in the present study. In the latter study, the exact values were not reported, however in the figured data it was shown that after an inhalation of 3 to 5 mIU of CMS, formed colistin concentrations were in the range of 10^2 to 10^3 mg/L [16]. Again, it is not known whether these differences we ...

[2] = Colistin pharmacokinetics in plasma after nebulized CMS in ventilated VARI patients; assay type: in vivo, human; details: for Volume of distribution/ fraction of dose absorbed / Clearance/fraction of dose absorbed / Cmax / AUC0–8 h: NCA; for Volume of distribution/ fraction of dose absorbed: dose/(λ × AUCinf); for Volume of distribution/ fraction of dose absorbed / Clearance/fraction of dose absorbed / Cmax / Cmin / AUC0–8 h / level at 0.5 h / level at 1 h / level at 2 h / level at 4 h / level at 6 h / level at 8 h / Tmax: median (IQR); for Clearance/fraction of dose absorbed: dose/AUCinf; for AUC0–8 h: no systemic CMS, HPLC-fluorescence; for level at 0.5 h / level at 1 h / level at 2 h / level at 4 h / level at 6 h / level at 8 h / Tmax: 2 mIU; for level at 0.5 h: 0.5 h post-nebulization; for level at 0.5 h / level at 1 h / level at 2 h / level at 4 h / level at 6 h / level at 8 h: read-out: Ccolistin, plasma; for level at 1 h: 1 h post-nebulization; for level at 2 h: 2 h post-nebulization; for level at 4 h: 4 h post-nebulization; for level at 6 h: 6 h post-nebulization; for level at 8 h: 8 h post-nebulization
Source text: The study population consisted of 24 critically ill adult patients, admitted to the intensive care unit of the First Department of Pulmonology of the National and Kapodistrian University of Athens between June 2014 and November 2017. All patients were intubated and mechanically ventilated, and received inhaled CMS as part of their treatment for VAP or VAT caused by Gram-negative pathogens. Subjects were studied around the first dose of nebulized treatment, which always preceded intravenous treatment, to avoid confounding by colistin (or CMS) reaching the ELF via the systemic circulation. We excluded patients that received a dose different to the institution’s standard of 2 million international units (mIU) (~160 mg) of CMS and patients who were planned to receive intravenous colistin within 8 h of nebulization initiation.
A dose of 2 mIU of CMS (Colistin®, Norma Hellas, Athens, Greece), corresponding to approximately 160 mg CMS or 68 mg colistin-base activity, was nebulized over a 10–30 min period via either VMN (Aeroneb Solo with Aeroneb Pro controller, Aerogen, Galway, Ireland) or generic JN. This was not a randomized trial, and the nebulizer selection was exclusively a matter of availability of VMN consumables in the ICU at the time. The intended dose was dissolved in 4 mL of normal saline 0.9%. The nebulizer was placed at the inspiratory limb of the ventilator circuit, at 15 cm from the Y-piece, and the heat and moisture exchanger was removed. During nebulization, the patients were sedated and ventilated using assist volume controlled mode, with tidal volume set at 8 mL/kg of ideal body weight, a constant squared-wave inspiratory flow, a positive end expiratory pressure (PEEP) of less than or equal to 10 cm H2O, an inspiratory to expiratory time ratio equal to 1, an inspiratory pause of 10%, and a respiratory rate set at 15/min [31].
[…] The specimens were immediately centrifuged (3500× g for 10 min) in a frigid centrifuge (at 4 °C) and supernatants were collected in Eppendorfs and were frozen at −80 °C until analysis.
Colistin concentrations in plasma (Ccolistin,plasma) and epithelial lining fluid (Ccolistin,ELF) were measured through high performance liquid chromatography (HPLC)-fluorescence analysis.
The samples were rapidly centrifuged, and plasma and BAL supernatant were separated and kept frozen (−80 °C) before analysis, as previously described. An HPLC-RF assay was used for colistin concentration measurements in plasma and BAL fluid samples, based on the method of Li et al., as modified by Markou et al. and Ratjen et al.. Briefly, netilmicin was used as the internal standard and the method consisted of a protein precipitation step with trifluoracetic acid (TFA), followed by colistin derivatization with 9-fluorenylmethyl chloroformate on a solid phase extraction C18 cartridge. The eluted fluid was dried under vacuum and the solid residue was reconstituted in mobile phase for subsequent reversed-phase HPLC with fluorescence detection (excitation: 260 nm; emission: 316 nm). The analytical column was a Phenomenex Luna C18, 3 μm, 50 mm × 3 mm with 100 Å particle size, while the mobile phase consisted of ACN/THF/H2O (80/7.7/12.3%) with a flow rate of 0.5 mL/min. The injection volume was 20 μL. The method was linear at a concentration range of 0.10–4.8 mg/L (R^2 = 0.999). The limit of detection (LOD) and lower limit of quantification (LLOQ) were 0.01 and 0.04 mg/L, respectively, while the intra- and inter-assay variabilities were less than 16%. Representative chromatograms and calibration curves in plasma and BAL are given in the Supplementary Material (Figures S1 and S2).
PK analysis was performed on measured serum and ELF concentrations using the Phoenix® version 8.3 PK/PD software package (Certara, Princeton, NJ, USA). […]

[3] = human, inhaled or intranasal, JN, n = 6, 2 mIU CMS inhaled
[4] = human, inhaled or intranasal, VMN, n = 18, 2 mIU CMS inhaled

CC[C@H](C)CCCCC(=O)N[C@@H](CCN)C(=O)N[C@H](C(=O)N[C@@H](CCN)C(=O)N[C@H]1CCNC(=O)[C@H]([C@@H](C)O)NC(=O)[C@H](CCN)NC(=O)[C@H](CCN)NC(=O)[C@H](CC(C)C)NC(=O)[C@@H](CC(C)C)NC(=O)[C@H](CCN)NC1=O)[C@@H](C)O [colistin] (X1-[Dab]T[Dab][Dab][Dab][dL]L[Dab][Dab]T; lactam 4-C)
median plasma Cmax ([1]; 1 mIU of CMS via VMN, ref 13 (Athanassa et al.)): 1600 ng/mL
plasma concentrations ([1]; after inhaled CMS, generally): below 1 mg/L
Ccolistin over 2 mg/L, frequency of patients ([2]; 30 min, JN, n = 6, 2 mIU CMS inhaled): 0%
Ccolistin over 2 mg/L, frequency of patients ([2]; 30 min, VMN, n = 18, 2 mIU CMS inhaled): 0%
Ccolistin over 2 mg/L, frequency of patients ([2]; 60 min, JN, n = 6, 2 mIU CMS inhaled): 16.7%
Ccolistin over 2 mg/L, frequency of patients ([2]; 60 min, VMN, n = 18, 2 mIU CMS inhaled): 61.1%
Ccolistin over 2 mg/L, frequency of patients ([2]; 120 min, JN, n = 6, 2 mIU CMS inhaled): 16.7%
Ccolistin over 2 mg/L, frequency of patients ([2]; 120 min, VMN, n = 18, 2 mIU CMS inhaled): 22.2%
Ccolistin over 2 mg/L, frequency of patients ([2]; 240 min, JN, n = 6, 2 mIU CMS inhaled): 16.7%
Ccolistin over 2 mg/L, frequency of patients ([2]; 240 min, VMN, n = 18, 2 mIU CMS inhaled): 5.6%
Ccolistin over 2 mg/L, frequency of patients ([2]; 360 min, JN, n = 6, 2 mIU CMS inhaled): 0%
Ccolistin over 2 mg/L, frequency of patients ([2]; 360 min, VMN, n = 18, 2 mIU CMS inhaled): 0%
Ccolistin over 2 mg/L, frequency of patients ([2]; 480 min, JN, n = 6, 2 mIU CMS inhaled): 0%
Ccolistin over 2 mg/L, frequency of patients ([2]; 480 min, VMN, n = 18, 2 mIU CMS inhaled): 0%
Volume of distribution/ fraction of dose absorbed ([2]; JN, n = 6, 2 mIU CMS inhaled): 129.8 (95.6–151.9) L
Clearance/fraction of dose absorbed ([2]; JN, n = 6, 2 mIU CMS inhaled): 37.6 (23.2–39.9) L/h
Cmax ([2]; JN, n = 6, 2 mIU CMS inhaled): 0.3 (0.3–1.6) mg/L
AUC0–24 ([2]; JN, n = 6, 2 mIU CMS inhaled, calculated as AUCinf × 3, median (IQR)): 4.0 (3.8–19.3) mg/L∙h
Cmin ([2]; JN, n = 6, 2 mIU CMS inhaled): 0.1 (0.1–0.2) mg/L
AUC0–8 h ([2]; JN, n = 6, 2 mIU CMS inhaled): 1.3 (1.3–6.4) mg/L∙h
Mean T1/2 (SD) ([2]; JN, n = 6, 2 mIU CMS inhaled, t1/2 = 0.693/λ, mean (SD), SD): 2.4 (0.5) h
Volume of distribution/ fraction of dose absorbed ([2]; VMN, n = 18, 2 mIU CMS inhaled): 22.8 (16.8–33.0) L
Clearance/fraction of dose absorbed ([2]; VMN, n = 18, 2 mIU CMS inhaled): 7.3 (6.0–9.1) L/h
Cmax ([2]; VMN, n = 18, 2 mIU CMS inhaled): 2.6 (2.0–3.5) mg/L
Cmin ([2]; VMN, n = 18, 2 mIU CMS inhaled): 0.2 (0.1–0.3) mg/L
AUC0–8 h ([2]; VMN, n = 18, 2 mIU CMS inhaled): 7.5 (5.5–8.8) mg/L∙h
level at 0.5 h [2, 3]: 100 ng/mL
level at 0.5 h [2, 4]: 600 ng/mL
level at 1 h [2, 3]: 100 ng/mL
level at 1 h [2, 4]: 2300 ng/mL
level at 2 h [2, 3]: 300 ng/mL
level at 2 h [2, 4]: 1700 ng/mL
level at 4 h [2, 3]: 200 ng/mL
level at 4 h [2, 4]: 800 ng/mL
level at 6 h [2, 3]: 100 ng/mL
level at 6 h [2, 4]: 400 ng/mL
level at 8 h [2, 3]: 100 ng/mL
level at 8 h [2, 4]: 200 ng/mL
Tmax [2, 3]: 2.2 h
Tmax [2, 4]: 1.5 h
half-life ([2]; human, inhaled or intranasal, VMN, n = 18, 2 mIU CMS inhaled, t1/2 = 0.693/λ, mean (SD), SD): 2.4 h
